The test system of assay [1] is HCV genotype 1a (H77 strain) replicon in HUH-7 cells. The assay is described as follows: HCV replicon luciferase reporter assay, genotype 1a. The format is cell-based. The note with it: Hepatitis C virus, Huh-7, 72 h, HCV genotype 1a replicon luciferase, 3 days incubation. In short, it runs like this:
(§1)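 Replicon inhibition for both genotypes was measured as Renilla luciferase signal (EnduRen, 7.5 μM final, 2 h) after 3-day, 37° C exposure of replicon-bearing HUH-7 cells in 4% FCS DMEM, 0.5% DMSO. The 1b construct carries S1179I; the 1a H77 construct carries P1496L and S2204I. Twenty-point, 3-fold dilutions were fitted four-parametrically for EC50, and CC50 was taken from multiplexed Cell Titer-Blue.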

Assay [2] deals with HCV genotype 1b (Con1) replicon in HUH-7 cells. The assay is described as follows: HCV replicon luciferase reporter assay, genotype 1b. It is filed as cell-based. To be noted: Hepatitis C virus, Huh-7, 72 h, HCV genotype 1b replicon luciferase, 3 days incubation. The essentials: as §1

From patent US9499550B2 (BRISTOL-MYERS SQUIBB COMPANY, priority 2012, dated 2016) come the findings set out here.

Like-named read-outs stand apart in the source and are kept apart here.

For `C[C@H]1CC/C=C\[C@@H]2C[C@@]2(C(=O)NS(=O)(=O)C2(C)CC2)NC(=O)[C@@H]2C[C@@H](Oc3nccc4c5c(ccc34)N(C)CCO5)CN2C(=O)[C@@H](NC(=O)c2ccc(N(C)C)cc2)[C@H](C)C1` [Compound 5303, (2R,6S,7R,9S,13aS,14aR,16aS,Z)-6-(4-(dimethylamino)benzamido)-7,9-dimethyl-2-((4-methyl-3,4-dihydro-2H-[1,4]oxazino[2,3-f]isoquinolin-7-yl)oxy)-N-((1-methylcyclopropyl)sulfonyl)-5,16-dioxo-1,2,3,5,6,7,8,9,10,11,13a,14,14a,15,16,16a-hexadecahydrocyclopropa[e]pyrrolo[1,2-a][1,4]diazacyclopentadecine-14a-carboxamide], the EC50 is 4.82 to 103 nM in assay [1] (read-out: LE_1a (EC50, range)) and < 5.46 nM in assay [2] (read-out: LE_1b (EC50, range)).

Consider `C[C@@H]1CC/C=C\[C@@H]2C[C@@]2(C(=O)NS(=O)(=O)C2(C)CC2)NC(=O)[C@@H]2C[C@@H](Oc3nccc4c5c(ccc34)N(C)CCO5)CN2C(=O)[C@@H](NC(=O)c2ccc(N(C)C)cc2)[C@H](C)C1` [Compound 5304, (2R,6S,7R,9R,13aS,14aR,16aS,Z)-6-(4-(dimethylamino)benzamido)-7,9-dimethyl-2-((4-methyl-3,4-dihydro-2H-[1,4]oxazino[2,3-f]isoquinolin-7-yl)oxy)-N-((1-methylcyclopropyl)sulfonyl)-5,16-dioxo-1,2,3,5,6,7,8,9,10,11,13a,14,14a,15,16,16a-hexadecahydrocyclopropa[e]pyrrolo[1,2-a][1,4]diazacyclopentadecine-14a-carboxamide], for which the EC50 is < 5.46 nM in assay [1] (read-out: LE_1a (EC50, range)) and < 5.46 nM in assay [2] (read-out: LE_1b (EC50, range)).

On to `C[C@H]1CC/C=C\[C@@H]2C[C@@]2(C(=O)NS(=O)(=O)C2(C)CC2)NC(=O)[C@@H]2C[C@@H](Oc3nccc4c5c(ccc34)N(C)CCO5)CN2C(=O)[C@@H](NC(=O)C(=O)N(C)C)[C@H](C)C1` [Compound 5305, N1-((2R,6S,7R,9S,13aS,14aR,16aS,Z)-7,9-dimethyl-2-((4-methyl-3,4-dihydro-2H-[1,4]oxazino[2,3-f]isoquinolin-7-yl)oxy)-14a-(((1-methylcyclopropyl)sulfonyl)carbamoyl)-5,16-dioxo-1,2,3,5,6,7,8,9,10,11,13a,14,14a,15,16,16a-hexadecahydrocyclopropa[e]pyrrolo[1,2-a][1,4]diazacyclopentadecin-6-yl)-N2,N2-dimethyloxalamide], for which the EC50 in assay [1] (read-out: LE_1a (EC50, range)) was 4.82 to 103 nM; in assay [2] (read-out: LE_1b (EC50, range)), 4.82 to 103 nM.

Take `C[C@@H]1CC/C=C\[C@@H]2C[C@@]2(C(=O)NS(=O)(=O)C2(C)CC2)NC(=O)[C@@H]2C[C@@H](Oc3nccc4c5c(ccc34)N(C)CCO5)CN2C(=O)[C@@H](NC(=O)C(=O)N(C)C)[C@H](C)C1` [Compound 5306, N1-((2R,6S,7R,9R,13aS,14aR,16aS,Z)-7,9-dimethyl-2-((4-methyl-3,4-dihydro-2H-[1,4]oxazino[2,3-f]isoquinolin-7-yl)oxy)-14a-(((1-methylcyclopropyl)sulfonyl)carbamoyl)-5,16-dioxo-1,2,3,5,6,7,8,9,10,11,13a,14,14a,15,16,16a-hexadecahydrocyclopropa[e]pyrrolo[1,2-a][1,4]diazacyclopentadecin-6-yl)-N2,N2-dimethyloxalamide]: the EC50 is 2.97 nM in assay [1] (read-out: LE_1a (EC50)); < 5.46 nM in assay [1] (read-out: LE_1a (EC50, range)); 2.45 nM in assay [2] (read-out: LE_1b (EC50)); < 5.46 nM in assay [2] (read-out: LE_1b (EC50, range)).

Consider `CC[C@@H]1C[C@@H](C)CC/C=C\[C@@H]2C[C@@]2(C(=O)NS(=O)(=O)C2CC2)NC(=O)[C@@H]2C[C@@H](Oc3nccc4c5c(ccc34)N(C)CCO5)CN2C(=O)[C@H]1NC(=O)OC(C)(C)C` [Compound 5307, tert-butyl ((2R,6S,7R,9S,13aS,14aR,16aS,Z)-14a-((cyclopropylsulfonyl)carbamoyl)-7-ethyl-9-methyl-2-((4-methyl-3,4-dihydro-2H-[1,4]oxazino[2,3-f]isoquinolin-7-yl)oxy)-5,16-dioxo-1,2,3,5,6,7,8,9,10,11,13a,14,14a,15,16,16a-hexadecahydrocyclopropa[e]pyrrolo[1,2-a][1,4]diazacyclopentadecin-6-yl)carbamate], for which the EC50 in assay [1] (read-out: LE_1a (EC50, range)) was 4.82 to 103 nM; in assay [2] (read-out: LE_1b (EC50, range)), < 5.46 nM.

On to `CC[C@@H]1C[C@H](C)CC/C=C\[C@@H]2C[C@@]2(C(=O)NS(=O)(=O)C2CC2)NC(=O)[C@@H]2C[C@@H](Oc3nccc4c5c(ccc34)N(C)CCO5)CN2C(=O)[C@H]1NC(=O)OC(C)(C)C` [Compound 5308, tert-butyl ((2R,6S,7R,9R,13aS,14aR,16aS,Z)-14a-((cyclopropylsulfonyl)carbamoyl)-7-ethyl-9-methyl-2-((4-methyl-3,4-dihydro-2H-[1,4]oxazino[2,3-f]isoquinolin-7-yl)oxy)-5,16-dioxo-1,2,3,5,6,7,8,9,10,11,13a,14,14a,15,16,16a-hexadecahydrocyclopropa[e]pyrrolo[1,2-a][1,4]diazacyclopentadecin-6-yl)carbamate], for which the EC50 in assay [1] (read-out: LE_1a (EC50, range)) is < 5.46 nM; in assay [2] (read-out: LE_1b (EC50, range)), < 5.46 nM.

For the compound `CC[C@@H]1C[C@@H](C)CC/C=C\[C@@H]2C[C@@]2(C(=O)NS(=O)(=O)C2CC2)NC(=O)[C@@H]2C[C@@H](Oc3nccc4c5c(ccc34)N(C)CCO5)CN2C(=O)[C@H]1NC(=O)OC(C)(C)C(F)(F)F` [Compound 5309, 1,1,1-trifluoro-2-methylpropan-2-yl((2R,6S,7R,9S,13aS,14aR,16aS,Z)-14a-((cyclopropylsulfonyl)carbamoyl)-7-ethyl-9-methyl-2-((4-methyl-3,4-dihydro-2H-[1,4]oxazino[2,3-f]isoquinolin-7-yl)oxy)-5,16-dioxo-1,2,3,5,6,7,8,9,10,11,13a,14,14a,15,16,16a-hexadecahydrocyclopropa[e]pyrrolo[1,2-a][1,4]diazacyclopentadecin-6-yl)carbamate], the EC50 in assay [1] (read-out: LE_1a (EC50, range)) is 4.82 to 103 nM; in assay [2] (read-out: LE_1b (EC50, range)), < 5.46 nM.

As for `CC[C@@H]1C[C@H](C)CC/C=C\[C@@H]2C[C@@]2(C(=O)NS(=O)(=O)C2CC2)NC(=O)[C@@H]2C[C@@H](Oc3nccc4c5c(ccc34)N(C)CCO5)CN2C(=O)[C@H]1NC(=O)OC(C)(C)C(F)(F)F` [Compound 5310, 1,1,1-trifluoro-2-methylpropan-2-yl((2R,6S,7R,9R,13aS,14aR,16aS,Z)-14a-((cyclopropylsulfonyl)carbamoyl)-7-ethyl-9-methyl-2-((4-methyl-3,4-dihydro-2H-[1,4]oxazino[2,3-f]isoquinolin-7-yl)oxy)-5,16-dioxo-1,2,3,5,6,7,8,9,10,11,13a,14,14a,15,16,16a-hexadecahydrocyclopropa[e]pyrrolo[1,2-a][1,4]diazacyclopentadecin-6-yl)carbamate], the EC50 in assay [1] (read-out: LE_1a (EC50, range)) is < 5.46 nM; in assay [2] (read-out: LE_1b (EC50, range)), < 5.46 nM.

Turning to `[2H]C([2H])([2H])C(OC(=O)N[C@@H]1C(=O)N2C[C@H](Oc3nccc4c5c(ccc34)N(C)CCO5)C[C@H]2C(=O)N[C@]2(C(=O)NS(=O)(=O)C3CC3)C[C@H]2/C=C\CC[C@H](C)C[C@H]1CC)(C([2H])([2H])[2H])C(F)(F)F` [Compound 5311, 1,1,1,3,3,3-hexadeutero-2-(trifluoromethyl)propan-2-yl((2R,6S,7R,9S,13aS,14aR,16aS,Z)-14a-((cyclopropylsulfonyl)carbamoyl)-7-ethyl-9-methyl-2-((4-methyl-3,4-dihydro-2H-[1,4]oxazino[2,3-f]isoquinolin-7-yl)oxy)-5,16-dioxo-1,2,3,5,6,7,8,9,10,11,13a,14,14a,15,16,16a-hexadecahydrocyclopropa[e]pyrrolo[1,2-a][1,4]diazacyclopentadecin-6-yl)carbamate], the EC50 in assay [1] (read-out: LE_1a (EC50, range)) is < 5.46 nM; in assay [2] (read-out: LE_1b (EC50, range)), < 5.46 nM.

`[2H]C([2H])([2H])C(OC(=O)N[C@@H]1C(=O)N2C[C@H](Oc3nccc4c5c(ccc34)N(C)CCO5)C[C@H]2C(=O)N[C@]2(C(=O)NS(=O)(=O)C3CC3)C[C@H]2/C=C\CC[C@@H](C)C[C@H]1CC)(C([2H])([2H])[2H])C(F)(F)F` [Compound 5312, 1,1,1,3,3,3-hexadeutero-2-(trifluoromethyl)propan-2-yl((2R,6S,7R,9R,13aS,14aR,16aS,Z)-14a-((cyclopropylsulfonyl)carbamoyl)-7-ethyl-9-methyl-2-((4-methyl-3,4-dihydro-2H-[1,4]oxazino[2,3-f]isoquinolin-7-yl)oxy)-5,16-dioxo-1,2,3,5,6,7,8,9,10,11,13a,14,14a,15,16,16a-hexadecahydrocyclopropa[e]pyrrolo[1,2-a][1,4]diazacyclopentadecin-6-yl)carbamate]: the EC50 is < 5.46 nM in assay [1] (read-out: LE_1a (EC50, range)) and < 5.46 nM in assay [2] (read-out: LE_1b (EC50, range)).

With `CC[C@@H]1C[C@@H](C)CC/C=C\[C@@H]2C[C@@]2(C(=O)NS(=O)(=O)C2CC2)NC(=O)[C@@H]2C[C@@H](Oc3nccc4c5c(ccc34)N(C)CCO5)CN2C(=O)[C@H]1NC(=O)O[C@@H]1C[C@@H]2C[C@@H]2C1` [Compound 5313, (1R,3r,5 S)-bicyclo[3.1.0]hexan-3-yl((2R,6S,7R,9S,13aS,14aR,16aS,Z)-14a-((cyclopropylsulfonyl)carbamoyl)-7-ethyl-9-methyl-2-((4-methyl-3,4-dihydro-2H-[1,4]oxazino[2,3-f]isoquinolin-7-yl)oxy)-5,16-dioxo-1,2,3,5,6,7,8,9,10,11,13a,14,14a,15,16,16a-hexadecahydrocyclopropa[e]pyrrolo[1,2-a][1,4]diazacyclopentadecin-6-yl)carbamate], the EC50 is < 5.46 nM in assay [1] (read-out: LE_1a (EC50, range)) and < 5.46 nM in assay [2] (read-out: LE_1b (EC50, range)).
